# Source: PubChem BioAssay AID192 (DTP/NCI, 2004)
# “And” between values parts separate entries of the source, which are not always exact repeats. Identical values can stand only once. Inconclusive results and toxic doses are left out.
# System: BDF1 mice, B16 melanoma ip, median survival T/C
# Test: NCI In Vivo Anticancer Drug Screen. Data for tumor model B16 Melanoma (intraperitoneal) in B6D2F1 (BDF1) mice
# Settings: endpoint: median survival time, higher = longer survival
# How it was run: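 Values are ratios of treated (T) to vehicle-control (C) measurements of survival or tumor size in tumor-bearing mice.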
# [1] = dose: 12.5 mg/kg/injection, schedule: Q01DX009 (ip), vehicle: saline with Tween-80
# [2] = dose: 25.0 mg/kg/injection, schedule: Q01DX009 (ip), vehicle: saline with Tween-80
# [3] = dose: 50.0 mg/kg/injection, schedule: Q01DX009 (ip), vehicle: saline with Tween-80
# [4] = dose: 100.0 mg/kg/injection, schedule: Q01DX009 (ip), vehicle: saline with Tween-80
# [5] = dose: 100.0 mg/kg/injection, schedule: Q01DX009 (ip), vehicle: Klucel (hydroxypropylcellulose) (HPC)
# [6] = dose: 200.0 mg/kg/injection, schedule: Q01DX009 (ip), vehicle: Klucel (hydroxypropylcellulose) (HPC)
# [7] = dose: 100.0 mg/kg/injection, schedule: Q04DX003 (ip), vehicle: Klucel (hydroxypropylcellulose) (HPC)
# [8] = dose: 200.0 mg/kg/injection, schedule: Q04DX003 (ip), vehicle: Klucel (hydroxypropylcellulose) (HPC)
# [9] = dose: 400.0 mg/kg/injection, schedule: Q04DX003 (ip), vehicle: Klucel (hydroxypropylcellulose) (HPC)
# [10] = dose: 400.0 mg/kg/injection, schedule: Q01DX009 (ip), vehicle: Klucel (hydroxypropylcellulose) (HPC)
# [11] = dose: 0.5 mg/kg/injection, schedule: Q01DX009 (ip), vehicle: saline with Tween-80
# [12] = dose: 50.0 mg/kg/injection, schedule: Q01DX009 (ip), vehicle: gum acacia
# [13] = dose: 100.0 mg/kg/injection, schedule: Q01DX009 (ip), vehicle: gum acacia
# [14] = dose: 200.0 mg/kg/injection, schedule: Q01DX009 (ip), vehicle: gum acacia
# [15] = dose: 6.25 mg/kg/injection, schedule: Q01DX009 (ip), vehicle: saline
# [16] = dose: 12.5 mg/kg/injection, schedule: Q01DX009 (ip), vehicle: saline
# [17] = dose: 50.0 mg/kg/injection, schedule: Q01DX009 (ip), vehicle: Klucel (hydroxypropylcellulose) (HPC)
# [18] = dose: 25.0 mg/kg/injection, schedule: Q01DX009 (ip), vehicle: saline
# [19] = dose: 50.0 mg/kg/injection, schedule: Q01DX009 (ip), vehicle: saline
# [20] = dose: 100.0 mg/kg/injection, schedule: Q01DX009 (ip), vehicle: saline
# [21] = dose: 8.0 mg/kg/injection, schedule: Q01DX009 (ip), vehicle: saline
# [22] = dose: 6.25 mg/kg/injection, schedule: Q01DX009 (ip), vehicle: Klucel (hydroxypropylcellulose) (HPC)
# [23] = dose: 12.5 mg/kg/injection, schedule: Q01DX009 (ip), vehicle: Klucel (hydroxypropylcellulose) (HPC)
# [24] = dose: 25.0 mg/kg/injection, schedule: Q01DX009 (ip), vehicle: Klucel (hydroxypropylcellulose) (HPC)
smiles,measurement,setting,value
CCCCCCOC(CN(C)C)C(Cl)(Cl)Cl (centres undefined),T/C,"dose: 12.5 mg/kg/injection, schedule: Q01DX009 (ip), vehicle: distilled water + Tween-80",100 % of control
same,T/C,[1],101 % of control
same,T/C,"dose: 25.0 mg/kg/injection, schedule: Q01DX009 (ip), vehicle: distilled water + Tween-80",97 % of control
same,T/C,[2],105 % of control
same,T/C,"dose: 50.0 mg/kg/injection, schedule: Q01DX009 (ip), vehicle: distilled water + Tween-80",94 % of control
same,T/C,[3],102 % of control
same,T/C,"dose: 100.0 mg/kg/injection, schedule: Q01DX009 (ip), vehicle: distilled water + Tween-80",89 % of control
same,T/C,[4],90 % of control
same,T/C,"dose: 200.0 mg/kg/injection, schedule: Q01DX009 (ip), vehicle: saline with Tween-80",89 % of control
COc1ccccc1NC(=O)Nc1cccc(C)c1C,T/C,[5],87 % of control
same,T/C,[6],86 % of control
O=C(/C=C(\C(=O)c1ccccc1)c1ccccc1)c1ccccc1,T/C,[7],100 % of control
same,T/C,[8],100 % of control
same,T/C,[9],103 % of control
CC(C)c1ccc(C2CCCCC2O)cc1 (centres undefined),T/C,[3],94 % of control
same,T/C,[4],88 % of control
O=C(O)c1ccccc1C(=O)O.[C-]#[O+].[C-]#[O+].[C-]#[O+].[C-]#[O+].[Rh].[Rh],T/C,[5],108 % of control
same,T/C,[6],100 % of control
same,T/C,[10],94 % of control
C=C1[C@@H](O)[C@]2(O)OC[C@@]34[C@H]1[C@@H](OC(=O)C(C)CC)C(=O)O[C@@H]3C[C@H]1C(C)=CC(=O)[C@@H](O)[C@]1(C)[C@@H]24 (some centres undefined),T/C,[11],116 % of control
same,T/C,"dose: 1.0 mg/kg/injection, schedule: Q01DX009 (ip), vehicle: saline with Tween-80",118 % of control
CC(C)OC(=O)Nc1ccc(-c2ccc(NC(=O)OC(C)C)cc2)cc1,T/C,[5],109 % of control
same,T/C,[7],109 % of control
same,T/C,[6],118 % of control
same,T/C,[8],90 % of control
same,T/C,[10],109 % of control
same,T/C,[9],92 % of control
O=C(O)CSCCc1ccccc1,T/C,[5],96 % of control
same,T/C,[6],93 % of control
same,T/C,[10],100 % of control
F[B-](F)(F)F,T/C,"dose: 12.5 mg/kg/injection, schedule: Q01DX009 (ip), vehicle: gum acacia",104 % of control
same,T/C,"dose: 25.0 mg/kg/injection, schedule: Q01DX009 (ip), vehicle: gum acacia",114 % of control
same,T/C,[12],117 % of control
same,T/C,[13],105 % of control
same,T/C,[14],107 % of control
COc1cc2cc[n+]3c(C)c4cc5c(cc4cc3c2cc1OC)OCO5 (tested in a mixture with another compound),T/C,[15],94 % of control
same,T/C,[16],105 % of control
Cc1ccc(C)c(NC(=O)Nc2ccc(Cl)cc2)c1,T/C,[12],121 % of control
same,T/C,[13],92 % of control
same,T/C,[14],98 % of control
O=C(O)CCC(NC(=O)OCc1ccccc1)C(=O)OCc1ccccc1 (centres undefined),T/C,[17],86 % of control
same,T/C,[5],86 % of control
same,T/C,[6],96 % of control
Nc1cccc(NC=O)c1,T/C,[1],102 % of control
same,T/C,[2],97 % of control
same,T/C,[3],97 % of control
C=C(Cl)c1c(C)cc(C)cc1C,T/C,[17],87 % of control
CN(C)CCCNC(=S)S,T/C,[15],100 % of control
same,T/C,[16],97 % of control
same,T/C,"dose: 12.5 mg/kg/injection, schedule: Q04DX003 (ip), vehicle: saline",111 % of control
same,T/C,[18],110 % of control
same,T/C,"dose: 25.0 mg/kg/injection, schedule: Q04DX003 (ip), vehicle: saline",111 % of control
same,T/C,"dose: 50.0 mg/kg/injection, schedule: Q04DX003 (ip), vehicle: saline",94 % of control
CN(C)CCCN1c2ccccc2Sc2cnccc21,T/C,[18],115 % of control
same,T/C,[19],93 % of control
same,T/C,[20],115 % of control
CN(C)CCCN1c2ccccc2Sc2ccc(C(F)(F)F)cc21,T/C,"dose: 0.06 mg/kg/injection, schedule: Q01DX009 (ip), vehicle: saline",89 % of control
same,T/C,"dose: 0.25 mg/kg/injection, schedule: Q01DX009 (ip), vehicle: saline",97 % of control
same,T/C,"dose: 0.5 mg/kg/injection, schedule: Q01DX009 (ip), vehicle: saline",109 % of control
same,T/C,"dose: 2.0 mg/kg/injection, schedule: Q01DX009 (ip), vehicle: saline",104 % of control
same,T/C,[21],109 % of control
c1ccc(OCCC[P+](c2ccccc2)(c2ccccc2)c2ccccc2)cc1,T/C,"dose: 5.0 mg/kg/injection, schedule: Q01DX009 (ip), vehicle: saline",107 % of control
same,T/C,"dose: 10.0 mg/kg/injection, schedule: Q01DX009 (ip), vehicle: saline",105 % of control
same,T/C,"dose: 20.0 mg/kg/injection, schedule: Q01DX009 (ip), vehicle: saline",95 % of control
same,T/C,"dose: 40.0 mg/kg/injection, schedule: Q01DX009 (ip), vehicle: saline",97 % of control
COc1cc2c(c(OC)c1OC)-c1ccc(OC)c(=O)cc1[C@@H](NC(=O)CCl)CC2,T/C,"dose: 0.25 mg/kg/injection, schedule: Q01DX009 (ip), vehicle: saline with Tween-80",154 % of control
same,T/C,[11],161 % of control
C=C1CC(OC(=O)C(C)(O)CCl)C2C(=C)C(=O)OC2C2C1CC(O)C2(O)CCl (centres undefined),T/C,"dose: 3.0 mg/kg/injection, schedule: Q01DX009 (ip), vehicle: Klucel (hydroxypropylcellulose) (HPC)",104 % of control
same,T/C,"dose: 6.0 mg/kg/injection, schedule: Q01DX009 (ip), vehicle: Klucel (hydroxypropylcellulose) (HPC)",101 % of control
same,T/C,"dose: 12.0 mg/kg/injection, schedule: Q01DX009 (ip), vehicle: Klucel (hydroxypropylcellulose) (HPC)",101 % of control
same,T/C,"dose: 24.0 mg/kg/injection, schedule: Q01DX009 (ip), vehicle: Klucel (hydroxypropylcellulose) (HPC)",93 % of control
COc1c2ccoc2nc2c(OC)c3c(cc12)OCO3,T/C,[22],89 % of control
same,T/C,[23],100 % of control
same,T/C,[24],95 % of control
same,T/C,[17],92 % of control
CCCCCCCCCCCC[N+](C)(C)CCCCCCCCCCCC,T/C,"dose: 4.0 mg/kg/injection, schedule: Q01DX009 (ip), vehicle: saline",87 % of control
same,T/C,[21],88 % of control and 94 % of control
Nc1ncnc2c1c1c(N)[nH]nc1n2C1OC(CO)C(O)C1O (centres undefined),T/C,[18],110 % of control
same,T/C,[19],106 % of control
same,T/C,[20],95 % of control
COc1cc(C)c2c(c1C=O)Oc1c(c(C)c(O)c3c1C(O)OC3=O)OC2=O (centres undefined),T/C,"dose: 3.12 mg/kg/injection, schedule: Q01DX009 (ip), vehicle: saline",101 % of control
same,T/C,[15],94 % of control
same,T/C,[16],100 % of control
same,T/C,[18],101 % of control
same,T/C,[19],87 % of control
COc1cc2c(cc1OC)C(C#N)C2 (centres undefined),T/C,[22],105 % of control
same,T/C,[23],97 % of control and 102 % of control
same,T/C,[24],111 % of control
COc1cc(C2N(c3ccccc3)CCN2c2ccccc2)cc(OC)c1OC,T/C,[5],106 % of control
same,T/C,[6],103 % of control
same,T/C,[10],96 % of control
CCCN(C)N=Nc1ccccc1C(=O)O,T/C,"dose: 1.56 mg/kg/injection, schedule: Q01DX009 (ip), vehicle: saline with Tween-80",100 % of control
same,T/C,"dose: 3.12 mg/kg/injection, schedule: Q01DX009 (ip), vehicle: saline with Tween-80",103 % of control
same,T/C,"dose: 3.13 mg/kg/injection, schedule: Q01DX009 (ip), vehicle: saline with Tween-80",111 % of control
same,T/C,[22],116 % of control
same,T/C,"dose: 6.25 mg/kg/injection, schedule: Q01DX009 (ip), vehicle: saline with Tween-80",101 % of control and 102 % of control
same,T/C,[23],110 % of control
same,T/C,[1],98 % of control and 102 % of control and 105 % of control
same,T/C,[24],104 % of control
same,T/C,[2],102 % of control and 107 % of control and 115 % of control
same,T/C,[17],107 % of control
same,T/C,[3],100 % of control
c1ccc(C2=C([P+](c3ccccc3)(c3ccccc3)c3ccccc3)CCO2)cc1,T/C,"dose: 6.0 mg/kg/injection, schedule: Q01DX009 (ip), vehicle: saline",116 % of control
same,T/C,[15],105 % of control
